Laboratory results as given in patent US7915293B2, “Ubiquitin ligase inhibitors” (Rigel Pharmaceuticals, Inc., priority 2003, dated 2011).

How the values were obtained:
Set-up in all cases: key: “+” indicates that the compound exibits inhibitory activity; “−” indicates that low or no inhibitory activity was observed
[1] = target: T1, E3 (His-APC11/APC2-"APC") (Homo sapiens, UniProt Q9NYG5+Q9UJX6); assay: Gel-based E3 ligase assay, auto-ubiquitination; assay type: biochemical
Description: E3 (His-APC11/APC2-“APC”) auto-ubiquitination was measured as described in U.S. patent application Ser. No. 09/826,312 (Publication No. U.S. Pat. No. 2,002,0042083-A1), which is incorporated herein in its entirety. Details of the protocol are described below. Activity in the presence of compound was determined relative to a parallel control in which only DMSO is added. The IC50 values were typically determined using 6 or 8 different concentrations of compound, although as few as 2 concentrations may be used to approximate the IC50 values.
Corning 96-well plates (Corning 3650) were blocked with 100 μl of Blocking Buffer for 1 hour at room temperature. The plates were washed 4 times with 225 μl of 1×PBS and 80 μl of the reaction buffer were added that contained 100 ng/well of Flag-ubiquitin. To this, 10 μl of the test compound diluted in DMSO were added. After the test compound was added, 10 μl of E1 (human), E2 (Ubch5c) and APC in Protein Buffer were added to obtain a final concentration of 5 ng/well of E1, 20 ng/well of E2 and 100 ng/well APC. The plates were shaken for 10 minutes and incubated at room temperature for 1 hour. After incubation, the reaction was stopped by adding 25 μl of loading buffer (non-reducing) per well and the plates were heated at 95° C. for 5 minutes. An aliquot of each well was run on a 10% NugePage Gel and analyzed by Western Blot using the antibody mix and Lumino substrate described below. The luminescence was measured by using a BMG luminescence microplate reader.
(§1) To prepare the Blocking Buffer (1 liter; 1% Casein in 1×PBS), 10 grams of Casein (Hammersten Grade Casein from Gallard-Schlesinger Inc. #440203) were placed into 1 liter of 1×PBS, stirred on a hot plate and kept between 50-60° C. for an hour. The buffer was allowed to cool to room temperature and then filtered using a Buchner Funnel (Buchner filter funnel 83 mm 30310-109) and Whatman filter paper (Whatman Grade No. 1 Filter paper 28450-070). It was stored at 4° C. until used.
(§2) The reaction buffer consisted of 62.5 mM Tris pH 7.6 (Trizma Base—Sigma T-8524), 3 mM MgCl2 (Magnesium Chloride—Sigma M-2393), 1 mM DTT (Sigma D-9779), 2.5 mM ATP (Roche Boehringer Mann Corp. 635-316), 100 ng/well of Flag-ubiquitin, 0.1% BSA (Sigma A-7906), and 0.05% Tween-20 (Sigma P-7949).
(§3) The Protein Buffer consisted of 20 mM Tris pH 7.6, 10% glycerol (Sigma G-5516) and 1 mM DTT.
(§4) The antibody mix consisted of 0.25% BSA (Sigma A-7906) in 1×PBS, 1/50,000 anti-Flag (Sigma F-3165), 1/100,000 of anti-Mouse IgG-HRP (Jackson Immunoresearch #115-035-146).
The substrate mix consisted of SuperSignal Substrate from Pierce (catalog number 37070ZZ) and was prepared by mixing 100 ml of the peroxide solution, 100 ml of the enhancer solution and 100 ml of Millie water.

[2] = test system: A549 cells; assay: Cell proliferation assay, photographic image analysis of proliferation, apoptosis and death (PAD assay), A549; assay type: cell-based; conditions: 6 concentrations tested
In short: (§5)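 Cells grown in RPMI with 5% FBS (2,000/well) and dosed 24 h after plating with 6.3-fold dilutions in duplicate (master plate 500× final, top 10 mM stock). After 48 h at 37 °C, cells formamide-fixed and DAPI-stained. Image analysis counted live, apoptotic and dead cells.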

[3] = test system: HCT116 cells; assay: Cell proliferation assay, photographic image analysis of proliferation, apoptosis and death (PAD assay), HCT116; assay type: cell-based; conditions: 6 concentrations tested
Description: A549 (ATCC# CCL-185), HeLa (ATCC# CCL-2), HCT116 (ATCC# CCL-247), and H1299 (ATCC# CRL-5803) cells were maintained in T175 flasks following the ATCC recommended media and handling procedures. Flasks reaching approximately 70% confluency were trypsinized and resuspended in RPMI media (Cell-Gro catalog number 10-040-CM) modified to contain 5% FBS, 100 ug/mlPen/Strep (Cell-Gro catalog number 30-002-CL), and 0.3 mg/ml L-Glutamine (Cell-Gro catalog number 25-003-CL). A 20,000 cells/ml solution was made for plating. Cells were plated in black Packard 96 well plates by placing 100 μl per well (2,000 cells per well).
Compounds and additional media were added 24 hours after cell plating. A compound master plate was created with concentrations 500 times greater than the final concentration added to the cells. All compound testing was done in duplicate using 6.3 fold dilutions starting with 10 mM. All outside wells (and 4 internal wells) were DMSO controls. Taxol and at least one additional control were run on all plates. Three microliters of the compound master plate were added to deep well blocks containing 750 μl of RPMI media. One hundred microliters were transferred from the compound/media deep well blocks to the plated cells resulting in a 500 fold dilution of the compounds. Cells were grown at 37° C., 5% CO2 for 48 hours.
Cells to be analyzed by photography were fixed and stained. One hundred microliters of media were removed and 100 μl of 9.3% […] was added to each well. Plates were left on the benchtop for 45 minutes. A staining solution containing 1.55 μl of 1 mg/ml DAPI added to 18.75 ml PBS was warmed for 15 minutes at 37° C. The cells were aspirated prior to washing with 100 μl of PBS. Seventy microliters of PBS were aspirated and 170 μl of the DAPI solution were added to each well of fixed cells. Plates were left at room temperature for one hour then aspirated and washed twice with 100 μl of PBS. The stained cells were left at 4° C. for a minimum of 16 hours before photographic analysis with Array Scan II (Cellomics). Analysis of the photographic images to determine numbers of live cells (proliferation), apoptotic cells and dead cells, were according to the methods described in U.S. Provisional Patent Application Ser. No. 60/406,714, which incorporated herein in its entirety.

[4] = test system: HeLa cells; assay: Cell proliferation assay, photographic image analysis of proliferation, apoptosis and death (PAD assay), HeLa; assay type: cell-based; conditions: 6 concentrations tested
In short: as §5

[5] = target: MDM2 / p53 substrate (Homo sapiens, UniProt Q00987); assay: Plate-based MDM2 substrate ligation assay (MDM2-P53-FLAG); assay type: biochemical; conditions: 8 concentrations tested
Description: This assay was preformed essentially as described in WO 03/076899 (page 77, line 5 to page 80, line 13), hereby incorporated by reference in its entirety.

[6] = test system: A549 cells; assay: Non-photographic proliferation analysis (Promega Cell titer Aqueous), A549; assay type: cell-based; conditions: 6 concentrations tested
In short: (§6)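 HeLa, A549 and HCT116 cells, 2,000 per well in RPMI with 5% FBS, were given compounds 24 h after plating as 6.3-fold duplicate dilutions from 10 mM stock, diluted 500-fold into the wells. After 48 h at 37° C, 5% CO2, Cell titer Aqueous reagent was added for 45 min and absorbance read at 490 nm.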

[7] = target: T1, E3 (His-APC11/APC2-"APC"); assay: Plate-based E3 ligase assay (APC FLAG), auto-ubiquitination; assay type: biochemical; conditions: 8 concentrations tested
In short: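 His-APC11/APC2 auto-ubiquitination was run in casein-blocked nickel plates for 1 h at room temperature, with E1 at 5 ng/well, UbcH5c at 20 ng/well and APC at 100 ng/well. Buffer was 62.5 mM Tris pH 7.6, 3 mM MgCl2, 1 mM DTT, 2.5 mM ATP and Flag-ubiquitin at 100 ng/well. Detection used anti-Flag/HRP chemiluminescence, and IC50 was typically from 6 or 8 concentrations versus a DMSO control.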

[8] = test system: HeLa cells; assay: Non-photographic proliferation analysis (Promega Cell titer Aqueous), HeLa; assay type: cell-based; conditions: 6 concentrations tested
In short: as §6

[9] = target: E3 MDM2 (Homo sapiens, UniProt Q00987); assay: Plate-based autoubiquitination of the E3 MDM2 (MDM2-FLAG); assay type: biochemical; conditions: 8 concentrations tested
Description: E3 (His-APC11/APC2-“APC”) auto-ubiquitination was measured as described in U.S. patent application Ser. No. 09/826,312 (Publication No. US-2002-0042083-A1), which is incorporated herein in its entirety. Details of the protocol are described below. Activity in the presence of the compound was determined relative to a parallel control in which only DMSO was added. Values of the IC50 were typically determined using 6 or 8 different concentrations of the compound, although as few as 2 concentrations may be used to approximate the IC50 value.
Nickel-coated 96-well plates (Pierce 15242) were blocked for 1 hour with 100 μl of blocking buffer at room temperature. The plates were washed 4 times with 225 μl of 1×PBS and 80 μl of the reaction buffer were added that contained 100 ng/well of Flag-ubiquitin. To this, 10 μl of the test compound diluted in DMSO were added. After the test compound was added, 10 μl of E1 (human), E2 (Ubch5c), and APC in Protein Buffer was added to obtain a final concentration of 5 ng/well of E1, 20 ng/well of E2 and 100 ng/well of APC. The plate were shaken for 10 minutes and incubated at room temperature for 1 hour. After incubation, the plates were washed 4 times with 225 μl of 1×PBS and 100 μl/well of Antibody Mix were added to each well. The plates were incubate at room temperature for another hour after which they were washed 4 times with 225 μl of 1×PBS and 100 μl/well of Lumino substrate were added to each well. The luminescence was measured by using a BMG luminescence microplate reader.
as §1, §2, §3, §4
The substrate mix consisted of SuperSignal Substrate from Pierce (catalog number 37070ZZ) and was prepared by mixing 100 ml of the peroxide solution, 100 ml of the enhancer solution and 100 ml of Milli-Q® water.
In similar manner, autoubiquitination of the E3 MDM2 was determined (MDM2-FLAG). Further instruction in such assays can be found in U.S. patent application Ser. No. 10/108,767 (Publication No. US-2003-0104474 A1), which is incorporated herein in its entirety.

T1 sequence (Q9NYG5 whole entry): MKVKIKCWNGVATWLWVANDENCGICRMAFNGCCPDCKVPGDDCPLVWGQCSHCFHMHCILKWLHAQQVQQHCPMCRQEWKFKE
T1 sequence (Q9UJX6 whole entry): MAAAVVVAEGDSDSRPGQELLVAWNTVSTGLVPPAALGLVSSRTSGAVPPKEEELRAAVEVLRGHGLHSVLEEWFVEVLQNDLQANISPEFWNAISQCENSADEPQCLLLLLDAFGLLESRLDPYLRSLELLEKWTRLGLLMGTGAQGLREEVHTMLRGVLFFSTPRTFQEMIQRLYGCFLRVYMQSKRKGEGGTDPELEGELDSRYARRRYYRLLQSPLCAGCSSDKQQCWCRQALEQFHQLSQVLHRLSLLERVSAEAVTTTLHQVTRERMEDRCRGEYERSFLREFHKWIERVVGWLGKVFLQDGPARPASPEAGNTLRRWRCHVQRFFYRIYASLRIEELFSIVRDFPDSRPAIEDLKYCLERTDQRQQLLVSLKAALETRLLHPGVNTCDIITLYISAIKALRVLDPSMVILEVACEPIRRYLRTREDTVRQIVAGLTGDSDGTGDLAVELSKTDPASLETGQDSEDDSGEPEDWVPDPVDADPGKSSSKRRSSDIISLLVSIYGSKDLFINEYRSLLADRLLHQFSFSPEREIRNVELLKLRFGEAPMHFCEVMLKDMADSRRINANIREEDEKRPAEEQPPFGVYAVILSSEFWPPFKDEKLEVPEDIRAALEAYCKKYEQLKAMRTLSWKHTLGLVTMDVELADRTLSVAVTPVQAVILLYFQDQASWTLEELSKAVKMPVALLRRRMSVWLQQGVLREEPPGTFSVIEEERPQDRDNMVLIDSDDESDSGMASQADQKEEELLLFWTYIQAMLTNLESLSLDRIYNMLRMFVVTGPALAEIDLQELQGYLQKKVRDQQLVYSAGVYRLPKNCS
E3 MDM2, sequence (Q00987 whole entry): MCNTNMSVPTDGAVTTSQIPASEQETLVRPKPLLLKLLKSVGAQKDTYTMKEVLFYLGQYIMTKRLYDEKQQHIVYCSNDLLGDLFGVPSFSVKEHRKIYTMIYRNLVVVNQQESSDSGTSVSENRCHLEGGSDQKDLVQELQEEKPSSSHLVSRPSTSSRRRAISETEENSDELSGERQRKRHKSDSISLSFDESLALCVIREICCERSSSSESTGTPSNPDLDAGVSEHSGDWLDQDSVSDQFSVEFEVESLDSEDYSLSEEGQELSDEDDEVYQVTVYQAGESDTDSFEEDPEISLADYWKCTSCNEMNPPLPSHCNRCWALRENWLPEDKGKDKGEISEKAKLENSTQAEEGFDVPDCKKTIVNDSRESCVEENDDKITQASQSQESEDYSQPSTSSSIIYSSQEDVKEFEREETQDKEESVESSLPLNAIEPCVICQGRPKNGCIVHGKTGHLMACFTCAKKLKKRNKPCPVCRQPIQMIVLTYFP
MDM2 / p53 substrate, sequence (Q00987 whole entry): as above

| Structure (SMILES) | APC Flag (gel) [1] | PAD Assay, A549 6 pt [2] | PAD Assay, HCT116 6 pt [3] | PAD Assay, HELA 6 pt [4] | MDM2-P53 Flag 8 pt [5] | Cell Titer-Aqueous, A549 6 pt [6] | APC Flag 8 pt [7] | Cell Titer-Aqueous, HELA 6 pt [8] | MDM2-Auto Flag 8 pt [9] |
| --- | --- | --- | --- | --- | --- | --- | --- | --- | --- |
| NC(=O)c1ccccc1NS(=O)(=O)c1cc(Cl)c(Oc2ccc([N+](=O)[O-])cc2Cl)c(Cl)c1 [Example 193, 2-({[3,5-dichloro-4-(2-chloro-4-nitrophenoxy)phenyl]sulfonyl}amino)benzamide] | − (gel) |  |  |  |  |  |  |  |  |
| O=[N+]([O-])c1ccc(Oc2c(Cl)cc(S(=O)(=O)Nc3ccc(Cl)cc3[N+](=O)[O-])cc2Cl)c(Cl)c1 [Compound 215, 3,5-dichloro-4-(2-chloro-4-nitrophenoxy)-N-(4-chloro-2-nitrophenyl)benzene sulfonamide] |  | + | + | + | + | + | + | + | + |
| O=[N+]([O-])c1ccc(Oc2c(Cl)cc(S(=O)(=O)Nc3cc(Cl)ccc3Cl)cc2Cl)c(Cl)c1 [Compound 203, 3,5-dichloro-4-(2-chloro-4-nitrophenoxy)-N-(2,5-dichlorophenyl)benzene sulfonamide] |  | + | + | + | + | + | + | + | + |
| O=[N+]([O-])c1ccc(Oc2c(Cl)cc(S(=O)(=O)NCCc3ccc(O)cc3)cc2Cl)c(Cl)c1 [Example 223, 3,5-dichloro-4-(2-chloro-4-nitrophenoxy)-N-[2-(4-hydroxyphenyl)ethyl]benzene-sulfonamide] | − (gel) |  |  |  |  | − |  | − |  |
| O=[N+]([O-])c1ccc(Oc2c(Cl)cc(S(=O)(=O)Nc3ccc4cc[nH]c4c3)cc2Cl)c(Cl)c1 [Example 172, 3,5-dichloro-4-(2-chloro-4-nitrophenoxy)-N-1H-indol-6-ylbenzenesulfonamide] | + (gel) | + |  | + |  | + |  | + |  |
| CSc1ccccc1NS(=O)(=O)c1cc(Cl)c(Oc2ccc([N+](=O)[O-])cc2Cl)c(Cl)c1 [Example 191, 3,5-dichloro-4-(2-chloro-4-nitrophenoxy)-N-[2-(methylthio)phenyl]benzenesulfonamide] | − (gel) | + | + | + |  |  |  |  |  |
| O=[N+]([O-])c1ccc(Oc2c(Cl)cc(S(=O)(=O)Nc3ccncc3)cc2Cl)c(Cl)c1 [Example 221, 3,5-dichloro-4-(2-chloro-4-nitrophenoxy)-N-pyridin-4-ylbenzenesulfonamide] | − (gel) | − |  | − |  | − |  | − |  |
